Legend:
[1] = biological target: T1, type VI-S porcine pancreatic lipase (Sus scrofa, UniProt P00591); assay: Pancreatic lipase assay (pH-stat titration, triolein substrate); assay type: biochemical; parameters: Ymax: unit not given here; settings: for k / Ymax: 7.0 nM lipase, 700 nM inhibitor, pH 8.0; for k: k fitted for the 12.5 min after inhibitor addition, Y=Ymax*(1-exp(-k*X)); for Ymax: Ymax of the fit Y=Ymax*(1-exp(-k*X)); for inhibition at 0.7 µM: 12.5 min
T1 construct: purchased Sigma type VI-S (catalogue number not given)
T1 sequence (P00591 1-450): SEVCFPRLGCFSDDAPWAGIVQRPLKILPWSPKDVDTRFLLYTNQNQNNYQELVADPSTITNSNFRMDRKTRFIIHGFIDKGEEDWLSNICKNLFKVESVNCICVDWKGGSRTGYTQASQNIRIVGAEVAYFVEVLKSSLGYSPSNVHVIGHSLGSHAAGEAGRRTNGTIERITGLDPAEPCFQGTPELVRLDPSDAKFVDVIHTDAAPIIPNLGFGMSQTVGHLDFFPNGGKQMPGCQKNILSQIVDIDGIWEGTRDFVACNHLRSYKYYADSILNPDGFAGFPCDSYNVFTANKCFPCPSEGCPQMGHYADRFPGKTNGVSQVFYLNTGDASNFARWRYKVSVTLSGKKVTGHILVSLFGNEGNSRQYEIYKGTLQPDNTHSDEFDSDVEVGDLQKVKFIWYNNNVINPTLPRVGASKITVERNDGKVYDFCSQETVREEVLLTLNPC
Method: The use of a pancreatic lipase assay has been described in the literature (Hadvary, P. et al. Biochem. J. (1988) 256: 357-361; Hadvary, P. et al. Biochem. J. (1991) 266:2021-2027). Pancreatic lipase activity was measured using a 718 Stat Titrino (Brinkmann) programmed to maintain a pH of 8.0 using 0.1 N NaOH. The substrate mixture (pH 8) contained 1 mM taurochenodeoxycholate (Sigma), 9 mM taurodeoxycholate (Sigma), 0.1 mM cholesterol (Sigma), 1 mM phosphatidylcholine (Sigma), 1.5% BSA, 2 mM Tris base, 100 mM NaCl, 10 mM CaCl2, and 3% triolein (Sigma). The mixture (5 mL) was emulsified via sonication at room temperature, and added to the titration vessel with rapid stirring. The Stat Titrino was turned on and lipase (7.0 nM type VI-S porcine pancreatic lipase (Sigma) dissolved in PBS) was added to the vessel. After 10 min, inhibitor (700 nM dissolved in 100% DMSO) was added and the reaction continued for an additional 12.5 min. The k values were determined for the 12.5 min after the addition of the inhibitor using a one phase exponential association equation, Y=Ymax*(1−exp(−k*X)), k values for lipase alone were 0.0004±0.0001 sec. The k values for compounds disclosed herein are >0.0004±0.0001 sec.

SMILES	melting point	k [1]	Ymax [1]	inhibition at 0.7 µM [1] [%]
CCCCCCCCCCCCNc1nc2sc(C(=O)NCCCCCCCC)c(C)c2c(=O)o1 [Entry 24, 2-Dodecylamino-5-methyl-4-oxo-4H-thieno[2,3-d][1,3]oxazine-6-carboxylic acid octylamide]	137.1 to 138 °C	1.849 10-3.s-1	–	–
CCCCCCCCCCCCCCNc1nc2sc(C(=O)NCCCCCCCC)c(C)c2c(=O)o1 [Entry 25, 5-Methyl-4-oxo-2-tetradecylamino-4H-thieno[2,3-d][1,3]oxazine-6-carboxylic acid octylamide]	145 to 145.8 °C	1.629 10-3.s-1	–	–
CCCCCCCCCCCCCCCCNc1nc2sc(C(=O)NCCCCCCCC)c(C)c2c(=O)o1 [Entry 26, 2-Hexadecylamino-5-methyl-4-oxo-4H-thieno[2,3-d][1,3]oxazine-6-carboxylic acid octylamide]	146.3 to 147 °C	1.709 10-3.s-1	–	–
CCCCCCCCNc1nc2sc(C(=O)NC)c(C)c2c(=O)o1 [Entry 31, 5-Methyl-2-octylamino-4-oxo-4H-thieno[2,3-d][1,3]oxazine-6-carboxylic acid methylamide]	152.5 to 158 °C	0.777 10-3.s-1	–	–
CCCCCCCCNc1nc2sc(C(=O)NCc3cccnc3)c(C)c2c(=O)o1 [Entry 35, 5-Methyl-2-octylamino-4-oxo-4H-thieno[2,3-d][1,3]oxazine-6-carboxylic acid (pyridin-3-ylmethyl)amide]	148 to 150 °C	1.544 10-3.s-1	–	–
CCCCCCCCNC(=O)Nc1sc(C(=O)N2CCN(Cc3ccccc3)CC2)c(C)c1C(=O)O [Entry 37, 5-(4-Benzyl-piperazine-1-carbonyl)-4-methyl-2-(3-octyl-ureido)-thiophene-3-carboxylic acid]	193.5 to 195 °C (dec.)	0.574 10-3.s-1	0.211	–
CCCCCCCCNc1nc2sc(C(=O)OC(CCCC)CCCC)c(C)c2c(=O)o1 [Entry 39, 5-Methyl-2-octylamino-4-oxo-4H-thieno[2,3-d][1,3]oxazine-6-carboxylic acid 1-butyl-pentyl ester]	90 to 92 °C	1.253 10-3.s-1	0.156	–
CCCCCCCCNc1nc2sc(C(=O)N(CCCCCCCC)CCCCCCCC)c(C)c2c(=O)o1 [Entry 41, 5-Methyl-2-octylamino-4-oxo-4H-thieno[2,3-d][1,3]oxazine-6-carboxylic acid dioctylamide]	48 to 50 °C	1.050 10-3.s-1	0.130	–
CCCCCCCCNc1nc2sc(C(=O)N(CCCCCC)CCCCCC)c(C)c2c(=O)o1 [Entry 42, 5-Methyl-2-octylamino-4-oxo-4H-thieno[2,3-d][1,3]oxazine-6-carboxylic acid dihexylamide]	42 to 45 °C	1.123 10-3.s-1	0.124	–
CCCCCCCCNc1nc2sc(C(=O)N3CCC(Cc4ccccc4)CC3)c(C)c2c(=O)o1 [Entry 43, 6-(4-Benzyl-piperidine-1-carbonyl)-5-methyl-2-octylamino-thieno[2,3-d][1,3]oxazin-4-one]	100 to 106 °C	0.009 10-3.s-1	–	–
CCCCCCCCNc1nc2sc(C(=O)NCC(=O)OCc3ccccc3)c(C)c2c(=O)o1 [Entry 48, [(5-Methyl-2-octylamino-4-oxo-4H-thieno[2,3-d][1,3]oxazine-6-carbonyl)-amino]-acetic acid benzyl ester]	147 to 149 °C	0.440 10-3.s-1	–	–
CCCCCCN(C)c1nc2sc(C(=O)OCc3ccccc3)c(C)c2c(=O)o1 [Entry 57, 2-(Hexyl-methyl-amino)-5-methyl-4-oxo-4H-thieno[2,3-d][1,3]oxazine-6-carboxylic acid benzyl ester]	86 to 88 °C	0.070 10-3.s-1	–	–
CCCCCCCCNc1nc2sc(C(=O)NCC(C)(C)C)c(C)c2c(=O)o1 [Entry 58]	173 to 174.5 °C	0.723 10-3.s-1	–	–
CCCCC(CCCC)Nc1nc2sc(C(=O)OCc3ccccc3)c(C)c2c(=O)o1 [Entry 59, 2-(1-Butyl-pentylamino)-5-methyl-4-oxo-4H-thieno[2,3-d][1,3]oxazine-6-carboxylic acid benzyl ester]	136 to 138 °C	0.222 10-3.s-1	–	–
CCCCCCCCNc1nc2sc(CCCCCCC)cc2c(=O)o1 [Entry 61, 6-Heptyl-2-octylamino-thieno[2,3-d][1,3]oxazin-4-one]	89 to 91 °C	0.247 10-3.s-1	0.460	–
CCCCCCCCNc1nc2sc(Cc3ccccc3)cc2c(=O)o1 [Entry 62, 6-Benzyl-2-octylamino-thieno[2,3-d][1,3]oxazin-4-one]	123 to 124 °C	0.103 10-3.s-1	1.901	–
CCCCCCCCNc1nc2sc(CCCC)cc2c(=O)o1 [Entry 63, 6-Butyl-2-octylamino-thieno[2,3-d][1,3]oxazin-4-one]	93 to 94 °C	0.074 10-3.s-1	10.091	–
CCCCCCCCNc1nc2sc(C(=O)N3CCc4cc(OC)c(OC)cc4C3)c(C)c2c(=O)o1 [Entry 65, 6-(6,7-Dimethoxy-3,4-dihydro-1H-isoquinoline-2-carbonyl)-5-methyl-2-octylamino-thieno(2,3-d)(1,3)oxazin-4-one]	77 to 80 °C	0.284 10-3.s-1	0.339	–
CCCCCCCCNc1nc2sc(C(=O)NCc3ccc(OC)c(OC)c3)c(C)c2c(=O)o1 [Entry 66, 5-Methyl-2-octylamino-4-oxo-4H-thieno(2,3-d)(1,3)oxazine-6-carboxylic acid (2-(3,4-dimethoxy-phenyl)-methyl)-amide]	159 to 163 °C	1.027 10-3.s-1	0.118	–
CCCCCCCCNc1nc2sc(C(=O)NCc3ccc4c(c3)OCO4)c(C)c2c(=O)o1 [Entry 69, 5-Methyl-2-octylamino-4-oxo-4H-thieno(2,3-d)(1,3)oxazine-6-carboxylic acid (2-benzo(1,3)dioxol-5-yl-methyl)-amide]	149 to 152 °C	1.137 10-3.s-1	0.112	–
CCCCCCCCOc1nc2sc(CCCCCCC)c(C)c2c(=O)o1 [Entry 74, 6-Heptyl-5-methyl-2-octyloxy-thieno[2,3-d][1,3]oxazin-4-one]	29 to 31 °C	0.422 10-3.s-1	0.982	–
CCCCCCCCNc1nc2sc(C(=O)NCCCCc3ccccc3)c(C)c2c(=O)o1 [Entry 79, 5-Methyl-2-octylamino-4-oxo-4H-thieno(2,3-d)(1,3)oxazine-6-carboxylic acid (4-phenyl-butyl)-amide]	153 to 154 °C	–	–	69.5
CCCCCCCCNc1nc2sc(C(=O)NCCCc3ccccc3)c(C)c2c(=O)o1 [Entry 80, 5-Methyl-2-octylamino-4-oxo-4H-thieno(2,3-d)(1,3)oxazine-6-carboxylic acid (3-phenyl-propyl)-amide]	139 to 141 °C	–	–	66.3
CCCCCCCCOc1nc2sc(CCCCCCCC)c(C)c2c(=O)o1 [Entry 87]	36 °C	–	–	27.9
